# Values of other authors in patent US20040142049A1, “Compositions having tnf production inhibitory effect and tnf production inhibitors” (priority 2001, published 2004).
# Test system: TNF
# Settings: background art, prior publications
compound,measurement,value
COc1cc(/C=C/C(=O)CC(=O)/C=C/c2ccc(O)c(OC)c2)ccc1O [curcumin],TNF production inhibitory effect (in words),has a TNF production inhibitory effect
